Assay results published in patent publication US8937183B2, “Detection of hydrogen peroxide” (Promega Corporation, priority 2011, dated 2015).

Assay: Signal strength differences due to reaction pH and buffer composition (hydrogen peroxide, D-cysteine conversion, LDR)
Assay type: biochemical
Settings: for Net Average Signals at 15 Minutes / Net Average Signals at 60 Minutes / Net Average Signals at 105 Minutes: 100 μl of 10 μM H2O2 added
Procedure: A 30 μl sample of 4 mg/ml PBI 4458 in DMSO was diluted to 1.5 ml with Nanopure water, and 50 μl added to wells A1-12 and E1-12 of a microtiter plate. A 30 μl sample of 4 mg/ml PBI 4472 in DMSO was diluted to 1.5 ml with Nanopure, and 50 μl added to wells B1-12 and F1-12 of the plate. A 30 μl sample of 4 mg/ml PBI 4480 in DMSO was diluted to 1.5 ml with Nanopure water, and 50 μl added to wells C1-12 and G1-12 of the plate. A 30 μl sample of 4 mg/ml PBI 4481 in DMSO was diluted to 1.5 ml with Nanopure water, and 50 μl added to wells D1-12 and H1-12 of the plate. To the plate, a 50 μl sample of 200 mM KHPO4, pH 7.4 was added to wells A1-D4; 50 μl 200 mM Tris buffer, pH 7.4 was added to wells A5-D8; 50 μl 250 mM HEPES buffer, pH 7.5 was added to wells A9-D12; 50 μl 200 mM KHPO4 buffer, pH 9.2 was added to wells E1-H4; 50 μl 250 mM Tris buffer, pH 10.4 was added to wells E5-H8; and 50 μl 100 mM CAPS buffer, pH 10.4 was added to wells E9-H12.
A sample of hydrogen peroxide (30%, Sigma, H1009-5 ml) was diluted to 10 μM with Nanopure water, and 100 μl added to columns 3, 4, 7, 8, 11, 12 wells A-H of the plate. 100 μl Nanopure water was added to columns 1, 2, 5, 6, 9 and 10 of the plate. The plate was incubated at room temperature for 15 minutes.
A conversion solution was made by mixing 5 ml of 1 M HEPES buffer, pH 7.5, 4.9 ml of Nanopure water and 100 μl of 100 mM D-cysteine (in Nanopure water), and […] added to all wells of a luminometer plate.
After incubation, 25 μl of sample from all wells in the plate was transferred and mixed into the corresponding wells in the luminometer plate, incubated 2-3 minutes at room temperature, and 50 μl LDR (Example 23) added. The luminometer plate was incubated for 15 minutes at room temperature, and bioluminescence detected on a GloMax® luminometer.
Additional samples were taken at 60 and 105 minutes and added to a fresh luminometer plates containing 25 μl of conversion solution in all wells. The plates were then incubated for 15 minutes at room temperature, and bioluminescence detected as previously described.

SMILES: CC1(C)OB(c2ccc(COc3ccc4nc(C#N)sc4c3)cc2F)OC1(C)C [PBI 4481, 6-((3-fluoro-4-(4,4,5,5-tetramethyl-1,3,2-dioxaborolan-2-yl)benzyl)oxy)benzo[d]thiazole-2-carbonitrile]
- Signal to Background Ratios at 15 Minutes (CAPS pH 10.4, 15 minutes): 15.0
- Net Average Signals at 15 Minutes (CAPS pH 10.4, 15 minutes): 3,139,869 RLU
- Signal to Background Ratios at 60 Minutes (CAPS pH 10.4, 60 minutes): 15.6
- Net Average Signals at 60 Minutes (CAPS pH 10.4, 60 minutes): 4,514,998 RLU
- Signal to Background Ratios at 105 Minutes (CAPS pH 10.4, 105 minutes): 12.3
- Net Average Signals at 105 Minutes (CAPS pH 10.4, 105 minutes): 6,646,007 RLU
- Signal to Background Ratios at 15 Minutes (HEPES pH 7.5, 15 minutes): 1.4
- Net Average Signals at 15 Minutes (HEPES pH 7.5, 15 minutes): 15,697 RLU
- Signal to Background Ratios at 60 Minutes (HEPES pH 7.5, 60 minutes): 2.5
- Net Average Signals at 60 Minutes (HEPES pH 7.5, 60 minutes): 56,121 RLU
- Signal to Background Ratios at 105 Minutes (HEPES pH 7.5, 105 minutes): 3.0
- Net Average Signals at 105 Minutes (HEPES pH 7.5, 105 minutes): 111,757 RLU
- Net Average Signals at 15 Minutes (KPO4 Ph 7.4, 15 minutes): 16,032 RLU
- Signal to Background Ratios at 15 Minutes (KPO4 pH 7.4, 15 minutes): 1.5
- Signal to Background Ratios at 60 Minutes (KPO4 pH 7.4, 60 minutes): 2.2
- Net Average Signals at 60 Minutes (KPO4 pH 7.4, 60 minutes): 48,355 RLU
- Signal to Background Ratios at 105 Minutes (KPO4 pH 7.4, 105 minutes): 2.7
- Net Average Signals at 105 Minutes (KPO4 pH 7.4, 105 minutes): 108,403 RLU
- Signal to Background Ratios at 15 Minutes (KPO4 pH 9.2, 15 minutes): 4.7
- Net Average Signals at 15 Minutes (KPO4 pH 9.2, 15 minutes): 189,573 RLU
- Signal to Background Ratios at 60 Minutes (KPO4 pH 9.2, 60 minutes): 8.3
- Net Average Signals at 60 Minutes (KPO4 pH 9.2, 60 minutes): 494,981 RLU
- Signal to Background Ratios at 105 Minutes (KPO4 pH 9.2, 105 minutes): 7.7
- Net Average Signals at 105 Minutes (KPO4 pH 9.2, 105 minutes): 974,784 RLU
- Signal to Background Ratios at 15 Minutes (TRIS pH 10.4, 15 minutes): 23.2
- Net Average Signals at 15 Minutes (TRIS pH 10.4, 15 minutes): 1,467,615 RLU
- Signal to Background Ratios at 60 Minutes (TRIS pH 10.4, 60 minutes): 27.8
- Net Average Signals at 60 Minutes (TRIS pH 10.4, 60 minutes): 2,780,433 RLU
- Signal to Background Ratios at 105 Minutes (TRIS pH 10.4, 105 minutes): 24.2
- Net Average Signals at 105 Minutes (TRIS pH 10.4, 105 minutes): 4,441,956 RLU
- Signal to Background Ratios at 15 Minutes (Tris pH 7.4, 15 minutes): 1.9
- Net Average Signals at 15 Minutes (Tris pH 7.4, 15 minutes): 29,382 RLU
- Signal to Background Ratios at 60 Minutes (Tris pH 7.4, 60 minutes): 3.5
- Net Average Signals at 60 Minutes (Tris pH 7.4, 60 minutes): 111,440 RLU
- Signal to Background Ratios at 105 Minutes (Tris pH 7.4, 105 minutes): 4.4
- Net Average Signals at 105 Minutes (Tris pH 7.4, 105 minutes): 245,489 RLU

SMILES: CC1(C)OB(c2ccc(COc3ccc4nc(C#N)sc4c3)c3ccccc23)OC1(C)C [PBI 4480, 6-((4-(4,4,5,5-tetramethyl-1,3,2-dioxaborolan-2-yl)naphthalen-1-yl)methoxy)benzo[d]thiazole-2-carbonitrile]
- Signal to Background Ratios at 15 Minutes (CAPS pH 10.4, 15 minutes): 12.1
- Net Average Signals at 15 Minutes (CAPS pH 10.4, 15 minutes): 1,799,015 RLU
- Signal to Background Ratios at 60 Minutes (CAPS pH 10.4, 60 minutes): 14.7
- Net Average Signals at 60 Minutes (CAPS pH 10.4, 60 minutes): 4,256,769 RLU
- Signal to Background Ratios at 105 Minutes (CAPS pH 10.4, 105 minutes): 12.6
- Net Average Signals at 105 Minutes (CAPS pH 10.4, 105 minutes): 7,150,225 RLU
- Signal to Background Ratios at 15 Minutes (HEPES pH 7.5, 15 minutes): 1.0
- Net Average Signals at 15 Minutes (HEPES pH 7.5, 15 minutes): −234 RLU
- Signal to Background Ratios at 60 Minutes (HEPES pH 7.5, 60 minutes): 1.7
- Net Average Signals at 60 Minutes (HEPES pH 7.5, 60 minutes): 29,727 RLU
- Signal to Background Ratios at 105 Minutes (HEPES pH 7.5, 105 minutes): 2.3
- Net Average Signals at 105 Minutes (HEPES pH 7.5, 105 minutes): 75,066 RLU
- Net Average Signals at 15 Minutes (KPO4 Ph 7.4, 15 minutes): 3,538 RLU
- Signal to Background Ratios at 15 Minutes (KPO4 pH 7.4, 15 minutes): 1.1
- Signal to Background Ratios at 60 Minutes (KPO4 pH 7.4, 60 minutes): 1.6
- Net Average Signals at 60 Minutes (KPO4 pH 7.4, 60 minutes): 38,198 RLU
- Signal to Background Ratios at 105 Minutes (KPO4 pH 7.4, 105 minutes): 1.9
- Net Average Signals at 105 Minutes (KPO4 pH 7.4, 105 minutes): 86,881 RLU
- Signal to Background Ratios at 15 Minutes (KPO4 pH 9.2, 15 minutes): 1.7
- Net Average Signals at 15 Minutes (KPO4 pH 9.2, 15 minutes): 37,330 RLU
- Signal to Background Ratios at 60 Minutes (KPO4 pH 9.2, 60 minutes): 3.6
- Net Average Signals at 60 Minutes (KPO4 pH 9.2, 60 minutes): 218,078 RLU
- Signal to Background Ratios at 105 Minutes (KPO4 pH 9.2, 105 minutes): 5.1
- Net Average Signals at 105 Minutes (KPO4 pH 9.2, 105 minutes): 587,867 RLU
- Signal to Background Ratios at 15 Minutes (TRIS pH 10.4, 15 minutes): 11.1
- Net Average Signals at 15 Minutes (TRIS pH 10.4, 15 minutes): 743,427 RLU
- Signal to Background Ratios at 60 Minutes (TRIS pH 10.4, 60 minutes): 17.9
- Net Average Signals at 60 Minutes (TRIS pH 10.4, 60 minutes): 1,903,885 RLU
- Signal to Background Ratios at 105 Minutes (TRIS pH 10.4, 105 minutes): 17.5
- Net Average Signals at 105 Minutes (TRIS pH 10.4, 105 minutes): 3,541,742 RLU
- Signal to Background Ratios at 15 Minutes (Tris pH 7.4, 15 minutes): 1.2
- Net Average Signals at 15 Minutes (Tris pH 7.4, 15 minutes): 7,845 RLU
- Signal to Background Ratios at 60 Minutes (Tris pH 7.4, 60 minutes): 2.0
- Net Average Signals at 60 Minutes (Tris pH 7.4, 60 minutes): 61,031 RLU
- Signal to Background Ratios at 105 Minutes (Tris pH 7.4, 105 minutes): 2.6
- Net Average Signals at 105 Minutes (Tris pH 7.4, 105 minutes): 162,663 RLU
